# Experimental data reported in patent publication US8143238B2, “Methods of increasing epidermal skin thickness by topical administration of a 19-nor containing vitamin D compound” (Wisconsin Alumni Research Foundation, priority 2008, dated 2012).
# Key:
# keratinocytes in culture = details: cited from earlier work
# hairless C3H mouse = details: topical administration to skin of hairless C3H mouse; cited from earlier work
# Rhino mice = experiment: Epidermal thickness of Rhino mice after 3 weeks of daily topical administration (histological analysis); format: in vivo, mouse; details: for API-Treated Epidermal Thickness (% Vehicle): 70% ethanol/30% propylene glycol, mean ± SEM
# Protocol: Methods. Animals and dose administration. Rhino mice 6-8 weeks old were dosed daily via the topical route. The mice were weighed three times per week. Doses of API were adjusted weekly based on body weight. The topical formulations dosage forms were made by mixing the API with two different topical carriers. One topical carrier consisted of 70 vol % propylene glycol and 30 vol % ethanol. The other topical carrier consisted of 30 vol % propylene glycol and 70 vol % ethanol. The topical vehicle control for a given comparative example was the vehicle carrier used in the API-formulated topical dosage form. Animals were euthanized 72 hours after administration of the final topical dose, and dorsal skin was collected for histological analysis.
# Measurement of epidermal thickness.
# Epidermal thickness was determined by histological analysis of tissue sections. Skin was fixed overnight in 4% paraformaldehyde at 4° C. with gentle agitation. The skin was dehydrated the following day in 100% methanol. Samples were embedded in paraffin. Nine sections, each measuring 10 μm and each separated by 150 μm, were taken from each mouse and stained with hematoxylin and eosin stain. Five of the nine sections were digitally imaged (6× magnification) for analysis of the epidermal thickness using Metamorph Imaging Software (single line function).
# The thickness of the epidermis adjacent to each comedone (open or healed) on each respective image of the five sections was also then measured using a Wacom Intuos 3 Graphics Tablet interfaced with the software. The average width was determined for each Rhino mouse from multiple measurements. Individual epidermal thickness average was determined from a composite of measurements taken from all 5 images. Such average for each mouse was used to calculate the treatment group mean. Results in the figures are expressed in terms of mean±standard error of the mean.
# Preparation of topical formulations and dosage forms containing the various API's including 2MBis P, CAGE-3, 24R-2MD2, VitIII (17-20E), NEL, VD-03, 2MPregna, 2MP, 20R-2MBisP, 2MTrisP, FF-44, FF-55, HPBS and 13Me2. Separate concentrated ethanolic stock solutions of each API were diluted to a predetermined dose concentration using a topical carrier vehicle. Two different carrier vehicles were used. One topical carrier consisted of 70 vol % propylene glycol and 30 vol % ethanol. The other topical carrier consisted of 30 vol % propylene glycol and 70 vol % ethanol. The vehicle was thoroughly mixed with the API. The topical dosing formulation and dosage form delivered a predetermined amount of API on a per kilogram body weight basis.
# A 100 μL dose was administered to the back of the mouse. An average weight of 24-30 g/mouse was assumed initially in the dose volume calculations. Dosing volumes were adjusted weekly to deliver the predetermined desired dose amount of API based on the body weight of each animal.
# [1] = 217 nmole/kgBW/day topical, 3 weeks, 70 vol. % ethanol/30 vol. % propylene glycol
# [2] = 694 nmole/kgBW/day topical, 3 weeks, 70 vol. % ethanol/30 vol. % propylene glycol
# [3] = topical API dose 217 nmol/kg daily, 3 weeks
# [4] = topical API dose 694 nmol/kg daily, 3 weeks
structure (smiles),measurement,setting,value
"C=C1/C(=C\C=C2/CCC[C@]3(C)[C@@H]([C@H](C)CCCC(C)(C)O)CC[C@@H]23)C[C@@H](O)C[C@@H]1O [1,25(OH)2D3, 1α,25-dihydroxy-vitamin D3]",proliferation of keratinocytes,keratinocytes in culture,inhibit the proliferation
same,epidermal proliferation,hairless C3H mouse,induce epidermal proliferation
same,epidermal thickness,hairless C3H mouse,increase epidermal thickness
same,epidermal thickness as compared to the vehicle-only control (in words),"Rhino mice; 6 nmole/kgBW daily topical, 3 weeks, 70 vol. % ethanol/30 vol. % propylene glycol",very modest increase in epidermal thickness
same,API-Treated Epidermal Thickness (% Vehicle),"Rhino mice; topical API dose 6.0 nmol/kg daily, 3 weeks",118 ± 7 % Vehicle
"C=C1[C@H](O)CC(=C/C=C2\CCC[C@]3(C)[C@@H]([C@@H](C)CC)CC[C@@H]23)C[C@H]1O [2MBisP, 2-methylene-19-nor-20(S)-1α-hydroxy-bishomopregnacalciferol]",epidermal thickness as compared to the vehicle control (in words),Rhino mice; [1],significant increase in epidermal thickness
same,epidermal thickness as compared to the vehicle control (in words),Rhino mice; [2],significant increase in epidermal thickness
same,potency at increasing epidermal thickness relative to 20R-2MBisP,"Rhino mice; doses of 217 and 694 nmole/kgBW/day topical, 3 weeks",approximately one-half log more potent
same,API-Treated Epidermal Thickness (% Vehicle),Rhino mice; [3],220 ± 8 % Vehicle
same,API-Treated Epidermal Thickness (% Vehicle),Rhino mice; [4],231 ± 6 % Vehicle
"C=C1C(O)CC(=CC=C2CCCC3(C)C2CCC3C(C)C)CC1O (stereo not drawn) [2MP, 1α-hydroxy-2-methylene-19-nor-homopregnacalciferol]",epidermal thickness as compared to the vehicle control (in words),Rhino mice; [1],significant increase in epidermal thickness
same,API-Treated Epidermal Thickness (% Vehicle),Rhino mice; [3],207 ± 8 % Vehicle
"C=C1[C@H](O)CC(=C/C=C2\CCC[C@]3(C)C(CC)CCC23)C[C@H]1O (stereo partly drawn) [2MPregna, 2-methylene-19-nor-1α-hydroxy-pregnacalciferol]",epidermal thickness as compared to the vehicle control (in words),Rhino mice; [1],significant increase in epidermal thickness
same,API-Treated Epidermal Thickness (% Vehicle),Rhino mice; [3],183 ± 8 % Vehicle
"C=C1[C@H](O)CC(=C/C=C2\CCC[C@]3(C)[C@@H]([C@@H](C)CCC)CC[C@@H]23)C[C@H]1O [2MTrisP, 2-methylene-(20S)-19-nor-1α-hydroxy-trishomopregnacalciferol]",epidermal thickness as compared to the vehicle control (in words),Rhino mice; [1],significant increase in epidermal thickness
same,API-Treated Epidermal Thickness (% Vehicle),Rhino mice; [3],221 ± 15 % Vehicle
"C=C1[C@H](O)CC(=C/C=C/CC(C)(C)C[C@@H](C)CCCC(C)(C)O)C[C@H]1O [13Me2, 13,13-dimethyl-des-C,D analog of (20S)-2-methylene-1α,25-dihydroxy-19-nor-vitamin D3]",epidermal thickness as compared to the vehicle control (in words),Rhino mice; [1],significant increase in epidermal thickness
same,API-Treated Epidermal Thickness (% Vehicle),Rhino mice; [3],229 ± 12 % Vehicle
"C=C1[C@H](O)CC(=C/C=C2\CCC[C@]3(C)[C@@H]([C@H](C)CC)CC[C@@H]23)C[C@H]1O [20R-2MBisP, (20R)-1α-hydroxy-2-methylene-19-nor-bishomopregnacalciferol]",epidermal thickness as compared to the vehicle control (in words),Rhino mice; [1],some increase in epidermal thickness
same,epidermal thickness as compared to the vehicle control (in words),Rhino mice; [2],significant increase in epidermal thickness
same,API-Treated Epidermal Thickness (% Vehicle),Rhino mice; [3],155 ± 7 % Vehicle
same,API-Treated Epidermal Thickness (% Vehicle),Rhino mice; [4],209 ± 13 % Vehicle
"C=C1[C@H](O)CC(=C/C=C2\CCC[C@]3(C)C([C@H](C)/C=C/[C@@H](C)C(C)(C)O)CC[C@@H]23)C[C@H]1O (stereo partly drawn) [(24R)2MD2, 2-methylene-19-nor-(24R)-1α,25-dihydroxyvitamin D2]",epidermal thickness as compared to the vehicle control (in words),"Rhino mice; 2.33 nmole/kgBW/day topical, 3 weeks, 70 vol. % ethanol/30 vol. % propylene glycol",significant increase in epidermal thickness
same,API-Treated Epidermal Thickness (% Vehicle),"Rhino mice; topical API dose 2.3 nmol/kg daily, 3 weeks",189 ± 13 % Vehicle
"C=C1[C@H](O)CC(=C/C=C2\CCC[C@]3(C)[C@@H]([C@@H](C)CCCC4(O)CCCC4)CC[C@@H]23)C[C@H]1O [CAGE-3, 19-nor-26,27-dimethylene-20(S)-2-methylene-1α,25-dihydroxyvitamin D3]",epidermal thickness as compared to the vehicle control (in words),"Rhino mice; 0.9 ng/day (ca. 100 picomole/kgBW/day), 0.45 ng/day from day 10, 0.22 ng/day (25 picomole/kgBW/day) from day 19, vehicle 30 vol. % ethanol/70 vol. % propylene glycol",increase in epidermal thickness
same,epidermal thickness compared to the vehicle control (in words),"Rhino mice; lowest dose 0.0079 nmol/kgBW daily topical, 3 weeks, 70 vol. % ethanol/30 vol. % propylene glycol",some increase in epidermal thickness
same,epidermal thickness as compared to the control vehicle (in words),"Rhino mice; three higher doses 0.025, 0.079 and 0.25 nmol/kgBW daily topical, 3 weeks, 70 vol. % ethanol/30 vol. % propylene glycol",significant increase in epidermal thickness
same,API-Treated Epidermal Thickness (% Vehicle),"Rhino mice; topical API dose 0.025 nmol/kg daily, 3 weeks",162 ± 11 % Vehicle
same,API-Treated Epidermal Thickness (% Vehicle),"Rhino mice; topical API dose 0.079 nmol/kg daily, 3 weeks",274 ± 14 % Vehicle
same,API-Treated Epidermal Thickness (% Vehicle),"Rhino mice; topical API dose 0.25 nmol/kg daily, 3 weeks",293 ± 8 % Vehicle
"C=C1[C@H](O)CC(=C/C=C2\CCC[C@@]3(C)C2CCC3[C@H](C)CC(F)F)C[C@H]1O (stereo partly drawn) [FF-44, 2-methylene-(20R)-23,23-difluoro-1α-hydroxy-19-nor-bishomopregnacalciferol]",epidermal thickness as compared to the vehicle control (in words),Rhino mice; [1],significant increase in epidermal thickness
same,API-Treated Epidermal Thickness (% Vehicle),Rhino mice; [3],206 ± 22 % Vehicle
"C=C1[C@H](O)CC(=C/C=C2\CCC[C@@]3(C)C2CCC3[C@@H](C)CC(F)F)C[C@H]1O (stereo partly drawn) [FF-55, 2-methylene-(20S)-23,23-difluoro-1α-hydroxy-19-nor-bishomopregnancalciferol]",epidermal thickness as compared to the vehicle control (in words),Rhino mice; [1],significant increase in epidermal thickness
same,API-Treated Epidermal Thickness (% Vehicle),Rhino mice; [3],225 ± 9 % Vehicle
"CC(C)C[C@H](C)[C@H]1CC[C@H]2/C(=C/C=C3C[C@@H](O)C(=CCCO)[C@H](O)C3)CCC[C@]12C [HPBS, 2-(3′hydroxypropyl-1′,2′-idene)-19,23,24-trinor-(20S)-1α-hydroxyvitamin D3]",epidermal thickness as compared to the control vehicle (in words),"Rhino mice; 217 nmole/kgBW/day for 3 days (2 mice) or 10 days (4 mice), then 122 nmole/kgBW/day, 3 weeks daily topical, 70 vol. % ethanol/30 vol. % propylene glycol",significant increase in epidermal thickness
same,API-Treated Epidermal Thickness (% Vehicle),"Rhino mice; topical API dose 217 to 122 nmol/kg daily (dose changed on day 10), 3 weeks",189 ± 13 % Vehicle
"C=C1[C@H](O)CC(=C/C=C2\CCC[C@]3(C)[C@@H]([C@H](C)CCC[C@H](C)O)CC[C@@H]23)C[C@H]1O [NEL, 2-methylene-(20R,25S)-19,26-dinor-1α,25-dihydroxyvitamin D3]","epidermal thickness, dose dependence (in words)","Rhino mice; 7.5 and 25 nmole/kgBW/day topical, 3 weeks, 70 vol. % ethanol/30 vol. % propylene glycol",dose-dependent increase in epidermal thickness
same,API-Treated Epidermal Thickness (% Vehicle),"Rhino mice; topical API dose 7.5 nmol/kg daily, 3 weeks",145 ± 4 % Vehicle
same,API-Treated Epidermal Thickness (% Vehicle),"Rhino mice; topical API dose 25 nmol/kg daily, 3 weeks",189 ± 11 % Vehicle
"C=C1[C@H](O)CC(=C/C=C2\CCC[C@@H]3[C@@H]([C@@H](C)CCCC(C)(C)O)CC[C@@H]23)C[C@H]1O [VD-03, 2-methylene-18,19-dinor-(20S)-1α,25-dihydroxyvitamin D3]",API-Treated Epidermal Thickness (% Vehicle),"Rhino mice; topical API dose 0.62 nmol/kg daily, 3 weeks",225 ± 6 % Vehicle
"C=C1[C@H](O)CC(=C/C=C2\CCC[C@]3(C)/C(=C(\C)CCCC(C)(C)O)CC[C@@H]23)C[C@H]1O [Vit-III 17-20E, 2-methylene-1α,25-dihydroxy-(17E)-17(20)-dehydro-19-nor-vitamin D3]",epidermal thickness as compared to the vehicle control (in words),"Rhino mice; 24.1 nmole/kgBW/day topical, 3 weeks, 70 vol. % ethanol/30 vol. % propylene glycol",significant increase in epidermal thickness
same,API-Treated Epidermal Thickness (% Vehicle),"Rhino mice; topical API dose 24 nmol/kg daily, 3 weeks",216 ± 13 % Vehicle
